The values below come from patent US6605115B1, “Method and composition for inhibiting cardiovascular cell proliferation” (Board of Trustees of the Leland Stanford Junior University, priority 1999, dated 2003).

Test [1] deals with cytokine-stimulated VSMC. Put plainly: Effect of arginine oligomers on NO production in cytokine-stimulated VSMC (NO2, Griess). Format: cell-based, rat. Here is the method: (§1) Rat VSMCs were prepared from the media layer of thoracic aorta of Sprague-Dawley rats by the explant method. The cells were cultured in Dulbecco's modified Eagle's medium (DMEM, Gibco BRL, Gaithersburg, Md.) containing 10% fetal calf serum, 100 U/ml penicillin and 100 μg/ml streptomycin at 37° C. under a humidified atmosphere containing 5% CO2. After subconfluent growth, cells were cultured with MEM Select Amine Kit (Gibco BRL, Gaithersburg, Md.) to be treated by specific concentrations of extracellular free L-arginine. Experiments were performed using cultured cells at passage levels of 5-10.
(§2) Extracellular NO production was measured as its stable oxidative metabolite, nitrite (NO2). At the end of each incubation, samples of the medium (80 μl) were collected, and NO2 measurement was performed using the Griess reaction facilitated by a commercial calorimetric assay (Cayman Chemical, Ann Arbor, Mich.). Values of NO2 production were corrected with relative cell count assessed by a cell proliferation kit II (XTT) (Boeheringer Mannheim, Germany).
Subconfluent cells were pre-incubated with medium containing 100 μM arginine for 24 hours. The cells were then transiently pretreated with each arginine polymer for 30 minutes. After translocation, the cells were incubated with a mixture of IFN-γ (100 U/ml) and LPS (100 μg/ml) in medium containing 100 μM L-arginine for another 24 hours. In some experiments, L-NMMA (1 mM), a nitric oxide synthase inhibitor, was added to the medium.
In general terms: The Griess reaction detects nitrite, a stable product of nitric oxide.

The subject of test [2] is cytokine-stimulated VSMC. The test is described as above. The format is cell-based, rat. As to conditions: exposure 5 minutes; observed for 24 hours; free L-arginine at 1 mM.
The test system of the next test is vein grafts. The test is described as follows: Vein graft model: vessel morphometry 28 days after surgery. Format: in vivo, New Zealand white rabbits. Here is the method:
Male New Zealand white rabbits (3.0-3.5 kg) fed standard diets were anesthetized with a mixture of ketamine (40 mg/kg) and xylazine (5 mg/kg) intramuscularly. The left external jugular vein was exposed through a longitudinal neck incision. The jugular vein was excised, gently flushed and immersed in PBS (control) or PBS containing either L-R7 (10.0 μM) or D-r7 (10.0 μM) for 30 minutes.
The right common carotid artery was exposed and clamped at the both proximal and distal ends. The treated vein segment was washed with PBS and then anastomosed in a reverse end-to-side fashion into the carotid artery, using continuous 8-0 polypropylene sutures. The common carotid artery was ligated and dissected between the two anastomoses, and the wound was closed with 3-0 nylon suture.
Vein graft segments were harvested on the 28th surgical day. Graft segments were fixed in 10% buffered formalin with gentle intraluminal pressure to maintain the physiological graft configuration. The middle portion of the paraffin samples were sectioned (5 μm) and stained with hematoxylin/eosin for light microscopic examination (FIGS. 8A-C). Three sections of each graft, taken at 0.5 mm intervals, were analyzed by planimetry by a observer blinded to the treatment group. The cross-sectional areas of the lumen, intima and media was digitized with the use of the Image Analyst program (Automatrix). The ratio of intima to media (I/M) area was calculated.

Test [3] concerns coronary vessels of transplanted PVG rat donor hearts. Put plainly: Heart transplant study (graft coronary artery disease, GCAD). Format: in vivo. To be noted: for % affected vessels / % luminal narrowing / I/M ratio: intracoronary 50 uM, 30 minutes. Here is the method: In this study, PVG rat donor hearts (n=48) were transplanted heterotopically into the abdomen of ACI recipients. Donor hearts received either intracoronary PBS or intracoronary 50 uM (L)-arginine polymer (L-R5 or L-R9) for 30 minutes. (D-arginine polymers were not included in this study.) Each of these groups was further divided into 60 and 90 day study animals (n=6 each). Percent luminal narrowing, intima to media ratio (I/M), and percent affected vessels were determined as described in Example 11, below. Transfection efficiency was determined by infusing biotinylated R5 and R9, as in the preceding studies, and calculating the percentage of biotin positive nuclei divided by total number of nuclei.
PVG rat donor hearts (n=48) were transplanted heterotopically into the abdomen of ACI recipients. Donor hearts received either intracoronary PBS or intracoronary 50 uM (L)-arginine polymer (L-R5 or L-R9) for 30 minutes. Each group was further divided into 60 and 90 day study animals (n=6 each). Tissue cross sections (5μ) were stained with EVG (Elastica-van Gieson) preparation, and vessels were scored using computerized morphometry for analysis of % luminal narrowing, intima to media ratio (I/M), and % affected vessels. Transfection efficiency was determined by infusing biotinylated R5 and R9, as in preceding examples, and calculating the percentage of biotin positive nuclei divided by total number of nuclei. Results are described in Section IV C, above.

In a further test the test system is cell membrane. To be noted: previously demonstrated; cited from earlier work.
For test [4], the system named is human umbilical vein endothelial cells (ECV304). The test is described as follows: In vitro translocation of biotin-labeled peptides into endothelial cells. To be noted: VSMC and endothelial cells in culture. Format: cell-based. Here is the method: Spontaneously transformed human umbilical vein endothelial cells (ECV304, ATCC) were cultured in medium M199 (Irvine Scientific) containing 10% fetal bovine serum (FBS), 100 IU/ml penicillin and 100 μg/ml of streptomycin (Gibco BRL). Confluent cells were washed and placed in serum-free medium. After 2 hours, the cells were incubated in presence of biotin labeled peptides, as bL-R7, or bD-R7, or bL-K7 (0.1, 1.0, and 10.0 μM). After 30 minutes of incubation, cells were washed 3 times with phosphate-buffered saline (PBS), fixed in ethanol/acetone; washed in PBS; incubated for 30 minutes with peroxidase suppressor (ImmunoPure, Pierce) to block endogenous peroxidase activity; and then incubated with 5 μg/ml of horse-radish peroxidase (HRP) conjugated strepavidin (Pierce) for 30 minutes. Substrate of HRP, diaminobenzidine (DAB, Sigma), was added to the cells. The reaction was terminated by washing in distilled water after a 60-second incubation. This experiment was repeated 3 times.

In a further test the test system is vein graft segments. The test is described as follows: Ex vivo NOx production from vein graft harvested 3 days after surgery. Format: in vivo, New Zealand white rabbits. To be noted: vein grafts harvested after 3 days, absence of calcium ionophore. Here is the method: Vein grafts were harvested 3 days after surgery, as described in Example 7. Vein graft segments were incubated in 1 me of Hanks' buffered saline solution (HBSS, Irvine Scientific) containing Ca^2+ (1.0 mM) and L-arginine (100 μM, Sigma) at 37° C. for 2 hours. NOx (nitrate and nitrite) production was measured either in the absence (basal) or presence (stimulated) of calcium ionophore (A23187, 10.0 μM, Sigma). Samples of the medium (80 μL) were collected, and NOx measurement was performed using the Griess reaction facilitated by a commercial calorimetric assay (Cayman Chemical).

For the next test, the system named is Rat aortic VSMC. The test is described as follows: VSMC proliferation assay (XTT). Format: cell-based. As to conditions: 10.0 μM, 30 minutes, then growth medium 0.5% FBS for 48 hours; vs vehicle. Here is the method: Rat aortic VSMC were grown to 50% confluence in 96-well cell culture plates. VSMC were then washed and incubated with serum free DMEM for 48 hours to obtain quiescent nondividing cells. Thereafter, VSMC were treated with vehicle, L-R7 (10.0 μM), or D-R7 (10.0 μM) for 30 minutes. After the treatment, cells were washed, and further incubated with serum containing DMEM (0.5%, FBS). Cells were harvested after 48 hours of incubation. Cell count was performed with commercial cell proliferation assay kit using spectrophotometer (XTT, Boehringer Mannheim). As a negative control, cells treated with vehicle and incubated with DSF were used. As an index of cell proliferation, the OD ratio of each treatment group to negative control group was calculated as an index of cell proliferation.
(In general: Tetrazolium dyes change colour on reduction, which living cells bring about.)

The subject of another test is rat VSMC. The test is described as follows: Stimulation of cells with interferon-γ and LPS: NO2 accumulation and dependence on extracellular L-arginine. The format is cell-based. To be noted: IFN-γ dose. Here is the method: as §1, §2
Cells were plated at a density of 5×10^3 per well into 96-well plates. […] After 24 hours of incubation, the cells were then treated with a mixture of IFN-γ (100 U/ml) and LPS (100 μg/ml) in the medium containing the same dose of L-arginine for another 24 hours, and nitrite (NO2) accumulation in the culture medium was quantified.

For `N=C(N)NCCC[C@H](N)C(=O)O` [L-arginine, reference compound], the “elevation of NO production” value in the test with cytokine-stimulated VSMC [1] (R7 10 μM pretreatment, free L-arginine up to 1 mM) is recorded as “not observed”. Besides, the “NO biosynthesis after 5 minutes exposure” value in the test on cytokine-stimulated VSMC [2] is recorded as “did not significantly increase NO biosynthesis”.
As to penta-L-arginine [R5], in the test on cytokine-stimulated VSMC [1] (pretreatment 30 minutes, then IFN-γ and LPS, 100 μM extracellular L-arginine), the NO production entry is listed as “no significant enhancement of NO production”. Moreover, the myointima formation entry with vein grafts is “not effective in inhibiting myointima formation”. In test [3] (60 and 90 days), the “GCAD compared to PBS controls” value was “essentially no difference in GCAD”. Besides, in test [3] (60 days), the “% affected vessels” value is recorded as 18.9 ± 7%, the “% luminal narrowing” value is on record as 12.6 ± 6.7% and the I/M ratio entry is listed as “.13 ± .07”. Also, in [3] (90 days), the “% affected vessels” value is reported as 18.5 ± 11.9%, the “% luminal narrowing” value was determined as 14.2 ± 12% and the I/M ratio result was “.16 ± .14”. Besides, the “transfection of coronary vessels” value in test [3] (biotinylated oligomer infused) is listed as “minimal transfection of coronary vessels”. The “translocation across the cell membrane” value in the test on cell membrane is reported as “not to translocate across the cell membrane”.
As for hepta-D-arginine [D-r7], the “translocation across cytoplasmic and nuclear membranes” value in test [4] was “very efficient at translocating across both cytoplasmic and nuclear membranes”. In the test with cytokine-stimulated VSMC [1] (100 μM, 30 minutes), the NO production entry was “did not increase the NO production”. The myointima formation entry with vein grafts was “substantially less myointima formation”. The “intima/media ratio (I/M)” value in the test on vein grafts (10.0 μM) stood at 0.8±0.2. In the test on vein grafts (10.0 μM, 30 minutes immersion), this molecule displayed an intimal area of 1.1±0.4 mm^2. Also, the “reduction of intimal area” value with vein grafts (10.0 μM, vs control) is “about 35%”. Also, the “Basal NOx production” value with vein graft segments was 48±8 nM/mg tissue/hr. The VSMC proliferation result in the test on Rat aortic VSMC was “significantly inhibited”.

B1: IFN-γ: Recombinant rat recombinant interferon-γ (protein, UniProt P01581 23-156, looked up)
Interferon gamma: QGTLIESLESLKNYFNSSSMDAMEGKSLLLDIWRNWQKDGNTKILESQIISFYLRLFEVLKDNQAISNNISVIESHLITNFFSNSKAKKDAFMSIAKFEVNNPQIQHKAVNELIRVIHQLSPESSLRKRKRSRC
For the molecule B1, in the test on rat VSMC, the “effect on NO biosynthesis” value is reported as “dose-dependent”.
